Source: the supplement of paper PMC10307832

Key:
Assay in all cases: relative viability (nuclei count vs DMSO), 5 days (fraction); higher = more cells survive
201T = tested on: 201T
Summary of the method: (§1)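 Lung cancer cell lines were seeded in 1536-well plates and dosed by pin tool the next day, with either a single drug or a fixed anchor-drug dose combined with five library-drug doses (not always all listed) spaced in √10 steps. Five days later, one step fixed the cells and stained their nuclei (final 0.05% Triton X-100, 1% formaldehyde, 1 ug/ml Hoechst), and nuclei were counted on 4× images. Relative viability is the nuclei count in treated wells divided by the count in vehicle wells, and each value is the median of duplicate plates.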

BEN = tested on: BEN
Summary of the method: as §1

EPLC-272H = tested on: EPLC-272H
Summary of the method: as §1

HCC-15 = tested on: HCC-15
Summary of the method: as §1

HCC-78 = tested on: HCC-78
Summary of the method: as §1

LCLC-97TM1 = tested on: LCLC-97TM1
Summary of the method: as §1

LU99A = tested on: LU99A
Summary of the method: as §1

NCI-H1355 = tested on: NCI-H1355
Summary of the method: as §1

NCI-H1395 = tested on: NCI-H1395
Summary of the method: as §1

NCI-H2009 = tested on: NCI-H2009
Summary of the method: as §1

NCI-H2085 = tested on: NCI-H2085
Summary of the method: as §1

NCI-H2126 = tested on: NCI-H2126
Summary of the method: as §1

NCI-H2228 = tested on: NCI-H2228
Summary of the method: as §1

NCI-H23 = tested on: NCI-H23
Summary of the method: as §1

NCI-H2405 = tested on: NCI-H2405
Summary of the method: as §1

NCI-H322M = tested on: NCI-H322M
Summary of the method: as §1

NCI-H460 = tested on: NCI-H460
Summary of the method: as §1

NCI-H647 = tested on: NCI-H647
Summary of the method: as §1

NCI-H838 = tested on: NCI-H838
Summary of the method: as §1

PC-14 = tested on: PC-14
Summary of the method: as §1

Q: With `Cc1csc(=NC2CCCCC2)n1/N=C/c1ccc(O)c(O)c1O` [MIM1] + CC1(C)CCC(c2ccc(Cl)cc2)=C(CN2CCN(c3ccc(C(=O)NS(=O)(=O)c4ccc(N[C@H](CCN5CCOCC5)CSc5ccccc5)c(S(=O)(=O)C(F)(F)F)c4)cc3)CC2)C1 [Navitoclax] (partner 0.5 µM) as the compound, how does the relative viability (201T; first compound 0.2 µM) read?
A: Its relative viability is 1.2.

Q: What about the relative viability (201T; first compound 0.6325 µM) of the same compound?
A: The relative viability was 1.21.

Q: What about the relative viability (201T; first compound 2 µM) of the same compound?
A: Its relative viability is 1.24.

Q: What about the relative viability (201T; first compound 6.325 µM) of the same compound?
A: Its relative viability is 1.19.

Q: What about the relative viability (201T; first compound 20 µM) of the same compound?
A: Its relative viability is 1.26.

Q: And the relative viability (BEN; first compound 0.2 µM)?
A: The relative viability was 0.0709.

Q: And the relative viability (BEN; first compound 0.6325 µM)?
A: Its relative viability is 0.0746.

Q: And the relative viability (BEN; first compound 2 µM)?
A: The relative viability was 0.0631.

Q: And the relative viability (BEN; first compound 6.325 µM)?
A: The relative viability was 0.0911.

Q: And the relative viability (BEN; first compound 20 µM)?
A: Its relative viability is 0.0543.

Q: And the relative viability (EPLC-272H; first compound 0.2 µM)?
A: Its relative viability is 1.11.

Q: What about the relative viability (EPLC-272H; first compound 0.6325 µM) of the same compound?
A: Its relative viability is 1.04.

Q: What about the relative viability (EPLC-272H; first compound 2 µM) of the same compound?
A: Its relative viability is 1.2.

Q: What about the relative viability (EPLC-272H; first compound 6.325 µM) of the same compound?
A: Its relative viability is 1.

Q: And the relative viability (EPLC-272H; first compound 20 µM)?
A: The relative viability was 0.199.

Q: What about the relative viability (HCC-15; first compound 0.2 µM) of the same compound?
A: Its relative viability is 0.682.

Q: And the relative viability (HCC-15; first compound 0.6325 µM)?
A: The relative viability was 0.693.

Q: What about the relative viability (HCC-15; first compound 2 µM) of the same compound?
A: Its relative viability is 0.689.

Q: What about the relative viability (HCC-15; first compound 6.325 µM) of the same compound?
A: Its relative viability is 0.42.

Q: And the relative viability (HCC-15; first compound 20 µM)?
A: The relative viability was 0.382.

Q: What about the relative viability (HCC-78; first compound 0.2 µM) of the same compound?
A: Its relative viability is 0.899.

Q: What about the relative viability (HCC-78; first compound 0.6325 µM) of the same compound?
A: Its relative viability is 0.731.

Q: And the relative viability (HCC-78; first compound 2 µM)?
A: Its relative viability is 0.668.

Q: And the relative viability (HCC-78; first compound 6.325 µM)?
A: The relative viability was 0.562.

Q: And the relative viability (HCC-78; first compound 20 µM)?
A: Its relative viability is 0.739.

Q: And the relative viability (LCLC-97TM1; first compound 0.2 µM)?
A: Its relative viability is 0.567.

Q: What about the relative viability (LCLC-97TM1; first compound 0.6325 µM) of the same compound?
A: Its relative viability is 0.398.

Q: What about the relative viability (LCLC-97TM1; first compound 2 µM) of the same compound?
A: The relative viability was 0.397.

Q: And the relative viability (LCLC-97TM1; first compound 6.325 µM)?
A: The relative viability was 0.48.

Q: And the relative viability (LCLC-97TM1; first compound 20 µM)?
A: The relative viability was 0.203.

Q: And the relative viability (LU99A; first compound 0.2 µM)?
A: Its relative viability is 0.931.

Q: And the relative viability (LU99A; first compound 0.6325 µM)?
A: Its relative viability is 0.817.

Q: And the relative viability (LU99A; first compound 2 µM)?
A: Its relative viability is 0.781.

Q: And the relative viability (LU99A; first compound 6.325 µM)?
A: Its relative viability is 0.836.

Q: And the relative viability (LU99A; first compound 20 µM)?
A: The relative viability was 0.18.

Q: What about the relative viability (NCI-H1355; first compound 0.2 µM) of the same compound?
A: Its relative viability is 0.977.

Q: And the relative viability (NCI-H1355; first compound 0.6325 µM)?
A: Its relative viability is 1.03.

Q: What about the relative viability (NCI-H1355; first compound 2 µM) of the same compound?
A: The relative viability was 1.07.

Q: And the relative viability (NCI-H1355; first compound 6.325 µM)?
A: Its relative viability is 0.793.

Q: What about the relative viability (NCI-H1355; first compound 20 µM) of the same compound?
A: Its relative viability is 0.95.

Q: What about the relative viability (NCI-H1395; first compound 0.2 µM) of the same compound?
A: The relative viability was 1.06.

Q: And the relative viability (NCI-H1395; first compound 0.6325 µM)?
A: Its relative viability is 1.1.

Q: And the relative viability (NCI-H1395; first compound 2 µM)?
A: Its relative viability is 1.63.

Q: What about the relative viability (NCI-H1395; first compound 6.325 µM) of the same compound?
A: The relative viability was 0.646.

Q: What about the relative viability (NCI-H1395; first compound 20 µM) of the same compound?
A: The relative viability was 0.425.

Q: And the relative viability (NCI-H2009; first compound 0.2 µM)?
A: The relative viability was 1.14.

Q: And the relative viability (NCI-H2009; first compound 0.6325 µM)?
A: Its relative viability is 1.19.

Q: And the relative viability (NCI-H2009; first compound 2 µM)?
A: Its relative viability is 1.22.

Q: And the relative viability (NCI-H2009; first compound 6.325 µM)?
A: Its relative viability is 0.999.

Q: What about the relative viability (NCI-H2009; first compound 20 µM) of the same compound?
A: Its relative viability is 0.826.

Q: And the relative viability (NCI-H2085; first compound 0.2 µM)?
A: Its relative viability is 1.17.

Q: What about the relative viability (NCI-H2085; first compound 0.6325 µM) of the same compound?
A: Its relative viability is 1.08.

Q: What about the relative viability (NCI-H2085; first compound 2 µM) of the same compound?
A: Its relative viability is 1.12.

Q: What about the relative viability (NCI-H2085; first compound 6.325 µM) of the same compound?
A: The relative viability was 1.02.

Q: And the relative viability (NCI-H2085; first compound 20 µM)?
A: The relative viability was 1.01.

Q: What about the relative viability (NCI-H2126; first compound 0.2 µM) of the same compound?
A: The relative viability was 0.898.

Q: And the relative viability (NCI-H2126; first compound 0.6325 µM)?
A: Its relative viability is 0.854.

Q: And the relative viability (NCI-H2126; first compound 2 µM)?
A: The relative viability was 0.974.

Q: What about the relative viability (NCI-H2126; first compound 6.325 µM) of the same compound?
A: Its relative viability is 0.831.

Q: And the relative viability (NCI-H2126; first compound 20 µM)?
A: Its relative viability is 0.812.

Q: What about the relative viability (NCI-H2228; first compound 0.2 µM) of the same compound?
A: The relative viability was 0.959.

Q: And the relative viability (NCI-H2228; first compound 0.6325 µM)?
A: Its relative viability is 0.916.

Q: What about the relative viability (NCI-H2228; first compound 2 µM) of the same compound?
A: The relative viability was 0.874.

Q: And the relative viability (NCI-H2228; first compound 6.325 µM)?
A: Its relative viability is 0.274.

Q: And the relative viability (NCI-H2228; first compound 20 µM)?
A: The relative viability was 0.157.

Q: What about the relative viability (NCI-H23; first compound 0.2 µM) of the same compound?
A: The relative viability was 0.631.

Q: What about the relative viability (NCI-H23; first compound 2 µM) of the same compound?
A: Its relative viability is 0.632.

Q: And the relative viability (NCI-H23; first compound 6.325 µM)?
A: Its relative viability is 0.934.

Q: What about the relative viability (NCI-H23; first compound 20 µM) of the same compound?
A: Its relative viability is 0.242.

Q: And the relative viability (NCI-H2405; first compound 0.2 µM)?
A: Its relative viability is 0.946.

Q: And the relative viability (NCI-H2405; first compound 0.6325 µM)?
A: Its relative viability is 0.999.

Q: And the relative viability (NCI-H2405; first compound 2 µM)?
A: The relative viability was 0.884.

Q: And the relative viability (NCI-H2405; first compound 6.325 µM)?
A: Its relative viability is 0.798.

Q: What about the relative viability (NCI-H2405; first compound 20 µM) of the same compound?
A: Its relative viability is 0.35.

Q: And the relative viability (NCI-H322M; first compound 0.2 µM)?
A: The relative viability was 1.13.

Q: And the relative viability (NCI-H322M; first compound 0.6325 µM)?
A: Its relative viability is 1.29.

Q: And the relative viability (NCI-H322M; first compound 2 µM)?
A: The relative viability was 1.31.

Q: And the relative viability (NCI-H322M; first compound 6.325 µM)?
A: The relative viability was 1.13.

Q: And the relative viability (NCI-H322M; first compound 20 µM)?
A: Its relative viability is 1.37.

Q: What about the relative viability (NCI-H460; first compound 0.2 µM) of the same compound?
A: Its relative viability is 1.16.

Q: What about the relative viability (NCI-H460; first compound 0.6325 µM) of the same compound?
A: The relative viability was 1.14.

Q: And the relative viability (NCI-H460; first compound 2 µM)?
A: The relative viability was 0.772.

Q: What about the relative viability (NCI-H460; first compound 6.325 µM) of the same compound?
A: Its relative viability is 0.416.

Q: And the relative viability (NCI-H460; first compound 20 µM)?
A: Its relative viability is 0.0332.

Q: And the relative viability (NCI-H647; first compound 0.2 µM)?
A: Its relative viability is 1.2.

Q: What about the relative viability (NCI-H647; first compound 0.6325 µM) of the same compound?
A: Its relative viability is 0.989.

Q: What about the relative viability (NCI-H647; first compound 2 µM) of the same compound?
A: Its relative viability is 0.742.

Q: And the relative viability (NCI-H647; first compound 6.325 µM)?
A: Its relative viability is 0.809.

Q: And the relative viability (NCI-H647; first compound 20 µM)?
A: The relative viability was 0.617.

Q: What about the relative viability (NCI-H838; first compound 0.2 µM) of the same compound?
A: The relative viability was 1.12.

Q: And the relative viability (NCI-H838; first compound 0.6325 µM)?
A: Its relative viability is 1.3.

Q: What about the relative viability (NCI-H838; first compound 2 µM) of the same compound?
A: Its relative viability is 0.994.

Q: And the relative viability (NCI-H838; first compound 6.325 µM)?
A: The relative viability was 0.902.

Q: What about the relative viability (NCI-H838; first compound 20 µM) of the same compound?
A: The relative viability was 0.501.

Q: What about the relative viability (PC-14; first compound 0.2 µM) of the same compound?
A: Its relative viability is 1.02.

Q: And the relative viability (PC-14; first compound 0.6325 µM)?
A: The relative viability was 1.03.

Q: And the relative viability (PC-14; first compound 2 µM)?
A: Its relative viability is 0.988.

Q: What about the relative viability (PC-14; first compound 6.325 µM) of the same compound?
A: Its relative viability is 0.894.

Q: And the relative viability (PC-14; first compound 20 µM)?
A: Its relative viability is 0.133.
